Read-outs that look alike come from different tables or passages of the source.
Columns and labels:
[1] = system: green peach aphid (Myzus persicae); experiment: Myzus persicae spray test (Chinese cabbage leaf discs); format: in vivo; conditions: foliar, 144 h, read-out: efficacy in %
Experimental: Myzus persicae—Spray Test
Solvent: • 78 parts by weight of acetone • 1.5 parts by weight of dimethylformamide
Emulsifier: alkylaryl polyglycol ether
To produce a suitable preparation of active compound, 1 part by weight of active compound is dissolved using the specified parts by weight of solvent and made up with water containing an emulsifier concentration of 1000 ppm until the desired concentration is attained. To produce further test concentrations, the formulation is diluted with emulsifier-containing water.
Discs of Chinese cabbage leaves (Brassica pekinensis) infested by all stages of the green peach aphid (Myzus persicae) are sprayed with an active compound formulation of the desired concentration.
After 6 days, the efficacy in % is determined. 100% means that all the aphids have been killed; 0% means that no aphids have been killed.

[2] = log P by HPLC on reversed-phase columns (OECD Guideline 117), [a] acidic pH 2.7, [b] neutral pH 7.8; format: physicochemical; conditions: reversed-phase (C18) HPLC column
Experimental: The log P values were determined in accordance with OECD Guideline 117 (EC Directive 92/69/EEC) by HPLC (high-performance liquid chromatography) using reversed-phase (RP) columns (C18), by the following methods:
[a] The LC-MS determination in the acidic range is carried out at pH 2.7 with 0.1% aqueous formic acid and acetonitrile (contains 0.1% formic acid) as eluents; linear gradient from 10% acetonitrile to 95% acetonitrile.
[b] LC-MS determination in the neutral range is effected at pH 7.8 with 0.001 molar aqueous ammonium hydrogencarbonate solution and acetonitrile as eluents; linear gradient from 10% acetonitrile to 95% acetonitrile.
Calibration is carried out using unbranched alkan-2-ones (having 3 to 16 carbon atoms) with known log P values (log P values determined on the basis of the retention times by linear interpolation between two successive alkanones).

[3] = system: nematode larvae (Cooperia curticei); experiment: Cooperia curticei test; format: in vivo; conditions: application rate 20 ppm; after 5 days; 100% = all larvae killed
Experimental: Solvent: dimethyl sulphoxide
To produce a suitable preparation of active compound, 10 mg of active compound are mixed with 0.5 ml of dimethyl sulfoxide and the concentrate is diluted with “Ringer's solution” to the desired concentration.
Vessels containing the active compound preparation of the desired concentration are populated with about 40 nematode larvae (Cooperia curticei).
After 5 days, the kill in % is determined. 100% means that all the larvae have been killed; 0% means that none of the larvae have been killed.

[4] = acidic pH 2.7, read-out: logP[a]
[5] = neutral pH 7.8, read-out: logP[b]

Row | SMILES | pest or weed control at 500 g/ha [1] | chromatographic logP [2, 4] | chromatographic logP [2, 5] | efficacy (kill in %) [3] | pest or weed control at 100 g/ha [1]
1 | Cc1cc(F)c(-c2ccc3nn(-c4cccnc4)cc3c2)cc1SCC(F)(F)F [Example 49, 5-[2-Fluoro-4-methyl-5-(2,2,2-trifluoroethylsulphanyl)phenyl]-2-(3-pyridyl)indazole] | 90% | 4.23 | 4.11 |  | 
2 | Cc1ccc(-c2ccc3nn(-c4cccnc4)cc3c2)cc1SCC(F)(F)F [Example 50, 5-[4-Methyl-3-(2,2,2-trifluoroethylsulphanyl)phenyl]-2-(3-pyridyl)indazole] | 100% | 4.12 | 4.07 |  | 
3 | Cc1ccc(-c2ccc3nn(-c4cccnc4)cc3c2)cc1[S+]([O-])CC(F)(F)F (stereo not shown) [Example 53, 5-[4-Methyl-3-(2,2,2-trifluoroethylsulphinyl)phenyl]-2-(3-pyridyl)indazole] | 90% | 2.72 | 2.68 |  | 
4 | Cc1cc(C)c([S+]([O-])CC(F)(F)F)cc1-c1ccc2nn(-c3cccnc3)cc2c1 (stereo not shown) [Example 54, 5-[2,4-Dimethyl-5-(2,2,2-trifluoroethylsulphinyl)phenyl]-2-(3-pyridyl)indazole] | 90% | 2.99 | 2.92 |  | 
5 | FC(F)(F)c1cnn(-c2ccc3nn(-c4cccnc4)cc3c2)c1 [Example 55, 2-(3-Pyridyl)-5-[4-(trifluoromethyl)pyrazol-1-yl]indazole] | 90% | 2.77 | 2.74 |  | 
6 | FC(F)(F)c1ccn(-c2ccc3nn(-c4cccnc4)cc3c2)n1 [Example 56, 2-(3-Pyridyl)-5-[3-(trifluoromethyl)pyrazol-1-yl]indazole] | 90% | 2.83 | 2.79 | 90% | 
7 | c1cncc(-c2ccc3nn(-c4cccnc4)cc3c2)c1 [Example 57, 2,5-Bis(3-pyridyl)indazole] | 90% | 0.88 | 1.71 | 80% | 
8 | Cn1cc(-c2ccc3nn(-c4cccnc4)cc3c2)cn1 [Example 58, 5-(1-Methylpyrazol-4-yl)-2-(3-pyridyl)indazole] | 90% | 1.51 | 1.57 |  | 
9 | c1ccc(-c2ccc3nn(-c4cccnc4)cc3c2)nc1 [Example 59, 5-(2-Pyridyl)-2-(3-pyridyl)indazole] |  | 1.13 | 1.93 |  | 90%
10 | c1cnc(-c2ccc3nn(-c4cccnc4)cc3c2)nc1 [Example 60, 2-(3-Pyridyl)-5-pyrimidin-2-yl-indazole] | 90% | 1.72 | 1.73 |  | 
11 | Clc1cccc(-c2ccc3nn(-c4cccnc4)cc3c2)n1 [Example 61] | 100% | 2.79 | 2.8 |  | 
12 | CSCn1ccc(-c2ccc3nn(-c4cccnc4)cc3c2)n1 [Example 62] | 90% | 1.97 | 2.11 |  | 
13 | CSCn1cc(-c2ccc3nn(-c4cccnc4)cc3c2)cn1 [Example 63] | 90% | 2.02 |  |  | 
14 | Cc1cccc(-c2ccc3nn(-c4cccnc4)cc3c2)n1 [Example 64] | 90% | 1.06 | 2.41 |  | 
15 | Cc1ccnc(-c2ccc3nn(-c4cccnc4)cc3c2)c1 [Example 66] | 90% | 0.97 | 2.2 |  | 
16 | Clc1cccnc1-c1ccc2nn(-c3cccnc3)cc2c1 [Example 68] | 100% | 2.17 | 2.21 |  | 
17 | Clc1ccnc(-c2ccc3nn(-c4cccnc4)cc3c2)c1 [Example 69] | 100% | 2.62 | 2.66 |  | 
18 | Cn1ccc(-c2ccc3nn(-c4cccnc4)cc3c2)n1 [Example 71] | 90% | 1.58 |  |  | 
19 | CCn1cc(-c2ccc3nn(-c4cccnc4)cc3c2)cn1 [Example 73] | 90% | 1.81 | 1.82 |  | 
20 | C[S+]([O-])Cn1cc(-c2ccc3nn(-c4cccnc4)cc3c2)cn1 (stereo not shown) [Example 74] | 100% | 1.17 | 1.19 |  | 

Row | SMILES | pest or weed control at 500 g/ha [1] | chromatographic logP [2, 4] | chromatographic logP [2, 5] | efficacy (kill in %) [3] | pest or weed control at 100 g/ha [1]
21 | CN(C(=O)c1ccc2nn(-c3cccnc3)cc2c1)C1CC1 [Example 75, N-Cyclopropyl-N-methyl-2-(pyridin-3-yl)-2H-indazole-5-carboxamide] | 90% | 1.47 | 1.5 |  | 
22 | CCSc1ccnc(-c2ccc3nn(-c4cccnc4)cc3c2)c1 [Example 76, 5-[4-(Ethylsulphanyl)pyridin-2-yl]-2-(pyridin-3-yl)-2H-indazole] | 90% | 1.62 | 2.84 | 80% | 
23 | CCSc1cccnc1-c1ccc2nn(-c3cccnc3)cc2c1 [Example 77] | 90% | 2.53 | 1.93 |  | 
24 | CCSc1cccc(-c2ccc3nn(-c4cccnc4)cc3c2)n1 [Example 79] | 100% | 3.57 | 3.57 |  | 
25 | CCSc1ccc(-c2ccc3nn(-c4cccnc4)cc3c2)nc1 [Example 80] | 100% | 2.87 | 3.03 |  | 
26 | Cc1cc(C)c(SCC(F)(F)F)cc1NC(=O)c1ccc2nn(-c3cccnc3)cc2c1 [Example 81, N-{2,4-Dimethyl-5-[(2,2,2-trifluoroethyl)sulphanyl]phenyl}-2-(pyridin-3-yl)-2H-indazole-5-carboxamide] | 90% | 3.15 | 3.12 |  | 
27 | Cc1ccc(NC(=O)c2ccc3nn(-c4cccnc4)cc3c2)cc1SCC(F)(F)F [Example 82] | 90% | 3.22 | 3.15 |  | 
28 | CSCCNC(=O)c1ccc2nn(-c3cccnc3)cc2c1 [Example 85] | 90% | 1.45 | 1.5 |  | 
29 | CN(CC(F)F)C(=O)c1ccc2nn(-c3cccnc3)cc2c1 [Example 86] | 100% | 1.55 | 1.55 |  | 
30 | O=C(c1ccc2nn(-c3cccnc3)cc2c1)N1CCOCC1 [Example 87] | 100% | 1.14 | 1.16 |  | 
31 | O=C(c1ccc2nn(-c3cccnc3)cc2c1)N1CCCC1 [Example 88] | 100% | 1.43 | 1.48 |  | 
32 | CCN(CC)C(=O)c1ccc2nn(-c3cccnc3)cc2c1 [Example 89] | 100% | 1.63 | 1.65 |  | 
33 | CN(CC(F)(F)F)C(=O)c1ccc2nn(-c3cccnc3)cc2c1 [Example 90] | 90% | 1.84 | 1.87 |  | 
34 | Cc1cc(F)c(NC(=O)c2ccc3nn(-c4cccnc4)cc3c2)cc1SCC(F)(F)F [Example 91] |  | 3.22 | 3.12 |  | 90%
35 | O=C(c1ccc2nn(-c3cccnc3)cc2c1)N1CCSCC1 [Example 92] | 100% | 1.5 | 1.58 |  | 
36 | Cc1ccc(NC(=O)c2ccc3nn(-c4cccnc4)cc3c2)cc1[S+]([O-])CC(F)(F)F (stereo not shown) [Example 94, N-{4-Methyl-3-[(2,2,2-trifluoroethyl)sulphinyl]phenyl}-2-(pyridin-3-yl)-2H-indazole-5-carboxamide] | 90% | 2.23 | 2.23 |  | 
37 | CS(=O)(=O)CCNC(=O)c1ccc2nn(-c3cccnc3)cc2c1 [Example 95] | 90% | 0.9 | 0.95 |  | 
38 | Cc1cc(F)c(NC(=O)c2ccc3nn(-c4cccnc4)cc3c2)cc1[S+]([O-])CC(F)(F)F (stereo not shown) [Example 96] | 100% | 2.19 | 2.14 |  | 
39 | Cc1cc(C)c([S+]([O-])CC(F)(F)F)cc1NC(=O)c1ccc2nn(-c3cccnc3)cc2c1 (stereo not shown) [Example 97] | 100% | 2.2 | 2.22 |  | 
40 | Fc1ccnc(-c2ccc3nn(-c4cccnc4)cc3c2)c1 [Example 101] | 90% | 2.04 | 2.21 |  | 

— US10131649B2, “Bicyclic compounds as pest control agents” (BAYER CROPSCIENCE AKTIENGESELLSCHAFT, priority 2014, dated 2018)
